Source: patent US20250388568A1, “NLRP3 INHIBITORS” (Kodiak Sciences Inc., priority 2022, published 2025)
Like-named read-outs stand apart in the source and are kept apart here.

Assays:
[1] = tested on: IL-1β release in U937 cells after NLRP3 activation; assay: IC50 determination of IL-1β release inhibition in U937 cells; assay type: cell-based; conditions: Homo sapiens, read-out: IL-1β IC50 (nM) U937 cells
Description: Example 79: IC50 Determination of IL-1β Release Inhibition in U937 Cells The compounds of the present disclosure were tested for their ability to inhibit the IL-1β release in the U937 cells after NLRP3 activation. U937 cells (U-97 CRL 1593.2) were thawed following ATCC's initial culture procedure. […] The growth medium was composed of RPMI1640 medium (Quality Biological 112-040-101), 10% serum (Corning 35-076-CV), Pen/Strep (GIBCO 15140-122), 10 mM Hepes (Quality Biological 118-089-721), 2 mM Glutamax (GIBCO 35050-061), and 100 μg/mL normocin (Invivogen ant-nr)-Differentiating media was prepared by adding Phorbol 12-myristate 13-acetate (PMA) (AdipoGen AG-CN2-0010-M005) to growth medium. A cell suspension was prepared with differentiating media at 500k cells/ml. With an electronic pipet, 200 ul of cell suspension was added to each well (96w white plate Corning 3903) leaving columns 1 and 2 empty. Plates were left in the biosafety cabinet for 15 min and then placed in incubator for 90 hours. Priming media was prepared with assay medium consisting of RPMI 1640 medium, 10 mM Hepes, 2 mM Glutamax and Pen/Strep plus 1 μg/mL LPS (Invivogen tlrl-3pelps). Differentiating media was manually removed and 80 ul of priming media was added to each well with an electronic pipet. The plates were placed in the incubator for 5 hours. […] DMSO). An hour prior to the end of LPS incubation, a separate 96 deep well plate, Plate B, was prepared with 400 μL of assay media per well, then […] of the stock DMSO solution from Plate A was added to each corresponding well. Plate B was covered to avoid media evaporation. In a 50 mL tube, a solution of nigericin in assay media at 50 uM/mL concentration was prepared. To a new 96 deep well plate, Plate C, 200 μL of this nigericin containing media was dispensed to each well and 1 μL of the test compounds from Plate B to each corresponding well was added. Plate C was covered to avoid media evaporation. After 5 hours of priming, all the media from the LPS treated U937 cells was removed manually. To this plate of primed cells, 80 μL/well test compounds from Plate B (assay media+compound) was added in duplicate columns (5 compounds tested per plate). The plate was placed in an incubator for 30 min. […] The plate was placed back in the incubator for 1 hour. At the end of 1 hour, the supernatant from this test plate was transferred to a new 96 well V bottom polypropylene plate which was frozen immediately at -80° C. The plate was transferred to -20° C. the next day and awaited further determination of cytokine IL-Ip level. The release of IL-1β into the cell media was determined by MSD® Multi-Spot Assay System (V-Plex, IL-1B kit, […]-4). Following the manufacture's protocol and using the Alternate Protocol 3, Dilute-In-Plate protocol specifically, the level of IL-IP in the above collected supernatant plate was measured as electrochemiluminescent signals. Using MSD DISCOVERY WORKBENCH® analysis software, the signals were converted to the concentration of IL-1β in each well. The IC50 values of the compounds were calculated using the Graph Pad Prism software based on the IL-1β concentration determined. The detection range of IL-1β using MSD kit was approximately […] (based on various lots of standards purchased from MSD).

[2] = tested on: IL-1β release in THP-1-ASC-GFP cells after NLRP3 activation; assay: IC50 determination of IL-1β release inhibition in THP-1-ASC-GFP cells; assay type: cell-based; conditions: THP1-ASC-GFP, read-out: IL-1β IC50 (nM) THP1 cells
Description: Example 78: IC50 Determination of IL-1β Release Inhibition in THP-1-ASC-GFP Cells The compounds were tested for their ability to inhibit the IL-1β release in the THP-1-ASC-GFP cells after NLRP3 activation. THP1-ASC-GFP cells (Invivogen […] thawed following Invivogen's initial culture procedure. […] The growth medium was composed of RPM1640 medium (Gibco 32404-014), 10% heat inactivated (HI) serum (Gibco A3840102), Pen/Strep (Quality Biologics 118-089-721), 10 mM Hepes (Quality Biologics 118-089-721), 2 mM Glutamax (GIBCO 35050-061), 100 μg/mL normocin (Invivogen ant-nr), 100 μg/mL Zeocin (Invivogen ant-zn). The growth medium was freshly prepared once a week and sterile filtered. Assay medium consisted of RPMI 1640 medium, 10 mM Hepes, 2 mM Glutamax and Pen/Strep. To the assay medium, 1 μg/mL LPS (Invivogen tlrl-3pelps) was added. A cell suspension was prepared with assay medium and LPS at 1.25M cells per mL. With an electronic pipet, 80 μl of cell suspension was added to U bottom 96 well polystyrene plates (VWR 10062-902) leaving columns 1 and 2 empty. The plates were placed in the incubator for 4 hours. […] DMSO). An hour prior to the end of LPS incubation, a separate 96 deep well plate, Plate B, was prepared with 400 μL of assay media per well, then 2 μL of the stock DMSO solution from Plate A was added to each corresponding well. Plate B was covered to avoid media evaporation. In a 50 mL tube, a solution of nigericin in assay media at […] concentration was prepared. To a new 96 deep well plate, Plate C, 200 μL of this nigericin containing media was dispensed to each well and […] of the test compounds from Plate A to each corresponding well was added. Plate C was covered to avoid media evaporation. After 4 hours of priming, all the media from the LPS treated THP-1 cells in the initial U bottom plate was removed manually. To this plate of primed cells, 80 μL/well test compounds from Plate B was added in duplicate columns (5 compounds tested per plate). The plate was placed in an incubator for 30 min. […] The plate was placed back in the incubator for 1 hour. At the end of 1 hour, the supernatant from this test plate was transferred to a new 96 well V bottom polypropylene plate which was frozen immediately at -80° C. The plate was transferred to -20° C. the next day and awaiting further determination of cytokine IL-1β level. The release of IL-1β into the cell media was determined by MSD® Multi-Spot Assay System (V-Plex, IL-1B kit, […]-4). Following the manufacture's protocol and using the Alternate Protocol 3, Dilute-In-Plate protocol specifically, the level of IL-1β in the above collected supernatant plate was measured as electrochemiluminescent signals. Using MSD DISCOVERY WORKBENCH® analysis software, the signals were converted to the concentration of IL-1β in each well. The IC50 values of the compounds were calculated using the Graph Pad Prism software based on the […] concentration determined. The detection range of IL-1β using MSD kit was approximately […] (based on various lots of standards purchased from MSD).

[3] = U-937, PMA-differentiated U937 cells, LPS priming 5 h, nigericin, average of at least three experiments
[4] = THP-1-ASC-GFP cells, LPS priming 4 h, nigericin, average of at least three experiments

Structure (SMILES)	IC50 [1, 3]	IC50 [2, 4]	IC50 ([1]; U-937, 5 h)	IC50 ([2]; 4 h)
N=S(=O)(NC(=O)Nc1c2c(cc3c1CCC3)CCC2)c1cc(CN2CC(O)C2)co1 (stereo not drawn) [Example 1, N-((1,2,3,5,6,7-hexahydro-s-indacen-4-yl)carbamoyl)-4-((3-hydroxyazetidin-1-yl)methyl)furan-2-sulfonimidamide]	5 to 50 nM	< 5 nM	–	–
CC(C)NCc1coc(S(=N)(=O)NC(=O)Nc2c3c(cc4c2CCC4)CCC3)c1 (stereo not drawn) [Example 23, N-((1,2,3,5,6,7-hexahydro-s-indacen-4-yl)carbamoyl)-4-((isopropylamino)methyl)furan-2-sulfonimidamide]	–	–	< 5 nM	< 5 nM
CC(C)n1nc(S(=N)(=O)NC(=O)Nc2c3c(cc4c2CCC4)CCC3)cc1CN1CCC[C@@H]1CO (stereo partly drawn) [Example 20, N-((1,2,3,5,6,7-hexahydro-s-indacen-4-yl)carbamoyl)-5-(((R)-2-(hydroxymethyl)pyrrolidin-1-yl)methyl)-1-isopropyl-1H-pyrazole-3-sulfonimidamide]	5 to 50 nM	< 5 nM	–	–
Cc1oc(S(=N)(=O)NC(=O)Nc2c3c(c(F)c4c2CCC4)CCC3)cc1CN(C)CC1(CO)CCC1 (stereo not drawn) [Example 13, N-((8-fluoro-1,2,3,5,6,7-hexahydro-s-indacen-4-yl)carbamoyl)-4-((((1-(hydroxymethyl)cyclobutyl)methyl)(methyl)amino)methyl)-5-methylfuran-2-sulfonimidamide]	5 to 50 nM	< 5 nM	–	–
Cc1oc(S(=N)(=O)NC(=O)Nc2c3c(cc4c2CCC4)CCC3)cc1CN(C)CC1(CO)CCOCC1 (stereo not drawn) [Example 10, N-((1,2,3,5,6,7-hexahydro-s-indacen-4-yl)carbamoyl)-4-((((4-(hydroxymethyl)tetrahydro-2H-pyran-4-yl)methyl)(methyl)amino)methyl)-5-methylfuran-2-sulfonimidamide]	5 to 50 nM	< 5 nM	–	–
Cc1oc([S@@](=N)(=O)NC(=O)Nc2c3c(c(F)c4c2CCC4)CCC3)cc1CNC(C)C (single isomer, unassigned) [Example 28]	50 to 500 nM	50 to 500 nM	–	–
Cc1oc(S(=N)(=O)NC(=O)Nc2c3c(cc4c2CCC4)CCC3)cc1CN(C)CC1(O)CC1 (stereo not drawn) [Example 11, N-((1,2,3,5,6,7-hexahydro-s-indacen-4-yl)carbamoyl)-4-((((1-hydroxycyclopropyl)methyl)(methyl)amino)methyl)-5-methylfuran-2-sulfonimidamide]	5 to 50 nM	< 5 nM	–	–
N=S(=O)(NC(=O)Nc1c2c(cc3c1CCC3)CCC2)c1cc(C(=O)N2CC3(CC(O)C3)C2)co1 (stereo not drawn) [Example 3, N-((1,2,3,5,6,7-hexahydro-s-indacen-4-yl)carbamoyl)-4-(6-hydroxy-2-azaspiro[3.3]heptane-2-carbonyl)furan-2-sulfonimidamide]	50 to 500 nM	–	–	–
N=S(=O)(NC(=O)Nc1c2c(cc3c1CCC3)CCC2)c1cc(CN)co1 (stereo not drawn) [Example 22, 4-(aminomethyl)-N-((1,2,3,5,6,7-hexahydro-s-indacen-4-yl)carbamoyl)furan-2-sulfonimidamide]	5 to 50 nM	–	–	–

The next lines start with results.

IC50 [1, 3]	IC50 [2, 4]	Structure (SMILES)	IC50 ([1]; U-937, 5 h)	IC50 ([2]; 4 h)
5 to 50 nM	< 5 nM	Cc1oc(S(=O)(=O)NC(=O)Nc2c3c(c(F)c4c2CCC4)CCC3)cc1CN(C)CC1(O)CCCC1 [Example 37, N-((8-fluoro-1,2,3,5,6,7-hexahydro-s-indacen-4-yl)carbamoyl)-4-((((1-hydroxycyclopentyl)methyl)(methyl)amino)methyl)-5-methylfuran-2-sulfonamide]	–	–
5 to 50 nM	5 to 50 nM	Cn1nc(S(=O)(=O)NC(=O)Nc2c3c(c(F)c4c2CCC4)CCC3)cc1CN1CCC[C@H]1CO [Example 62, (S)-N-((8-fluoro-1,2,3,5,6,7-hexahydro-s-indacen-4-yl)carbamoyl)-5-((2-(hydroxymethyl)pyrrolidin-1-yl)methyl)-1-methyl-1H-pyrazole-3-sulfonamide]	–	–
< 5 nM	< 5 nM	CNCc1coc([S@@](=N)(=O)NC(=O)Nc2c3c(cc4c2CCC4)CCC3)c1 (single isomer, unassigned) [Example 76]	–	–
50 to 500 nM	5 to 50 nM	Cc1oc(S(=O)(=O)NC(=O)Nc2c3c(c(F)c4c2CCC4)CCC3)cc1CN1C[C@@H](O)[C@@H](F)C1 [Example 42, N-((8-fluoro-1,2,3,5,6,7-hexahydro-s-indacen-4-yl)carbamoyl)-4-(((3S,4R)-3-fluoro-4-hydroxypyrrolidin-1-yl)methyl)-5-methylfuran-2-sulfonamide]	–	–
5 to 50 nM	5 to 50 nM	Cn1nc(S(=O)(=O)NC(=O)Nc2c3c(c(F)c4c2CCC4)CCC3)cc1CNCC1(O)CCC1 [Example 59, N-((8-fluoro-1,2,3,5,6,7-hexahydro-s-indacen-4-yl)carbamoyl)-5-((((1-hydroxycyclobutyl)methyl)amino)methyl)-1-methyl-1H-pyrazole-3-sulfonamide]	–	–
5 to 50 nM	–	CC(C)n1nc(S(=O)(=O)NC(=O)Nc2c3c(c(Cl)c4c2CCC4)CCC3)cc1CN(C)CC1(O)CCC1 [Example 69, N-((8-chloro-1,2,3,5,6,7-hexahydro-s-indacen-4-yl)carbamoyl)-5-((((1-hydroxycyclobutyl)methyl)(methyl)amino)methyl)-1-isopropyl-1H-pyrazole-3-sulfonamide]	–	–
